Structures are written as SMILES.

One experiment deals with ALK4. As to conditions: cited from earlier work.
A further experiment addresses ALK1 (Homo sapiens, UniProt P37023). As to conditions: cited from earlier work.
The next experiment addresses T1, ALK2 (Homo sapiens, UniProt Q04771).
T1 sequence (Q04771 21-509): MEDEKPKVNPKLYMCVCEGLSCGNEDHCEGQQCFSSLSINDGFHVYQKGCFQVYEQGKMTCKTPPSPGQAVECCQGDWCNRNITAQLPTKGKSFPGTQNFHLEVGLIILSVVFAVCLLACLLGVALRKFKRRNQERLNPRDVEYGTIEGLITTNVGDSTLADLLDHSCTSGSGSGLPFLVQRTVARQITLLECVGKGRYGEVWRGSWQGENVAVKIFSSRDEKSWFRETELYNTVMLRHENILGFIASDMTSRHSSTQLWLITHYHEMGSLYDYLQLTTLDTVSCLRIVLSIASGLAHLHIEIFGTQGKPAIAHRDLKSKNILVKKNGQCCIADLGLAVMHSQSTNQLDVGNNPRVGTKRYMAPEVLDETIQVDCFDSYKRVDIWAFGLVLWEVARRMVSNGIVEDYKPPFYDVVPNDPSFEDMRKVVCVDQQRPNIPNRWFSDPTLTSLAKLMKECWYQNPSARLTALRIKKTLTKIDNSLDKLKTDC
Particulars: cited from earlier work.

In the next experiment the target is ALK3 (Homo sapiens, UniProt P36894). As to conditions: cited from earlier work.
ALK3, sequence (P36894 24-532): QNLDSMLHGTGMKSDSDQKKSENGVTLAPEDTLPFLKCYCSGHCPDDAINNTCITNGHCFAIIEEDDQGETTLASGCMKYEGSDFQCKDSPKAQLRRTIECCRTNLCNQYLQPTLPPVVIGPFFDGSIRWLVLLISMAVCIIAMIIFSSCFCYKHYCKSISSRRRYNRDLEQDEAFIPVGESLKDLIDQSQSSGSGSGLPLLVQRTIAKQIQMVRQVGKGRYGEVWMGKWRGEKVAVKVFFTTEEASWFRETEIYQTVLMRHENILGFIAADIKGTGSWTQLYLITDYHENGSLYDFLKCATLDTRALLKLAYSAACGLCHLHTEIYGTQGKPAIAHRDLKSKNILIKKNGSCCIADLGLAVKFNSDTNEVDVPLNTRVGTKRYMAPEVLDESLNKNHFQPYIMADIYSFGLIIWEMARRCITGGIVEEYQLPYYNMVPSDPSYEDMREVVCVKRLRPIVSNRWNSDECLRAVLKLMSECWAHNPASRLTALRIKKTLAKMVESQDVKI
The target of another experiment is ALK6 (Homo sapiens, UniProt O00238). As to conditions: cited from earlier work.
ALK6, sequence (O00238 14-502): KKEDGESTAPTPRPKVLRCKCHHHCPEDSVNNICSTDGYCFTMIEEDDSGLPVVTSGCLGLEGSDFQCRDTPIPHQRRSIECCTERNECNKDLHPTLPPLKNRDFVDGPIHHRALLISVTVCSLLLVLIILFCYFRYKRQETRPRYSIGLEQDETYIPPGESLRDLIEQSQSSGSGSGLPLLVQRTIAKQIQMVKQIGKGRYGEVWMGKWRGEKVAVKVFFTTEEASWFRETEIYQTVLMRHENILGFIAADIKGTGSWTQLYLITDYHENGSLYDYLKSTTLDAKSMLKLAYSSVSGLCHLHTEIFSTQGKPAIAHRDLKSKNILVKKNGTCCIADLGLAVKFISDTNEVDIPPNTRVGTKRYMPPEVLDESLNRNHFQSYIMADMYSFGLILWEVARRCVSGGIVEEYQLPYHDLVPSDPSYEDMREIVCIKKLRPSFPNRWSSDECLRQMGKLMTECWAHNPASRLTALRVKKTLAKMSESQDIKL
The next experiment relates to TGF-β-induced EMT. As to conditions: via the inhibition of Smad2 phosphorylation; cited from earlier work.
The test system of the next experiment is human urine cells (HUC). In words: Secondary induction, cell morphology by phase contrast microscopy. In kind it is cell-based. As to conditions: after Example 2 primary induction; 330 nm Indolactam V, four days. How it is done: HUC-M-35 P5 cells were prepared using the primary induction protocol described in Example 2. The cells were then cultured in a secondary induction medium containing DMEM, […] Indolactam V, 1×2 mM L-glutamine (Life Technologies, Cat No. 25030-081), and 1×B27 (Life Technologies, Cat No. 17504044) and p/s as detailed above for four days. The morphology of the resultant cells was examined by phase contrast microscopy.
HUC-M-35 P5 cells were induced using the primary induction protocol described in Example 2. […] The morphology of the resultant cells was assessed by phase contrast microscopy.

ALK1, sequence (P37023 22-503, species assumed): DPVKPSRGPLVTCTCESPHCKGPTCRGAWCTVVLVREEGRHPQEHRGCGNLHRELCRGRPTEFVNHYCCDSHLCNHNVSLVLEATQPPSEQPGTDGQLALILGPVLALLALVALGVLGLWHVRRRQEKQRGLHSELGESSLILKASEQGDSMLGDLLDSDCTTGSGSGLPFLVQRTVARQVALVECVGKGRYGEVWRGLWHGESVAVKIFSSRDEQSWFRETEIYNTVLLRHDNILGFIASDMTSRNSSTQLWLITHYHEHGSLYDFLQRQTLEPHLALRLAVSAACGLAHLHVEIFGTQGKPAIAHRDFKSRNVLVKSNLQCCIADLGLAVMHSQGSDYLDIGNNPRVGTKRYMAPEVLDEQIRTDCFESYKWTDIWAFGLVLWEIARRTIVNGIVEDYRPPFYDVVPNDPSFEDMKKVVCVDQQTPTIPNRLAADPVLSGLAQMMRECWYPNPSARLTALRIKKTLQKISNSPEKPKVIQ

By IC50 is commonly meant the midpoint of a concentration-inhibition curve. In the case of `Cc1cccc(-c2nn(C(=S)Nc3ccccc3)cc2-c2ccnc3ccccc23)n1` [A83-01, 3-(6-Methyl-2-pyridinyl)-N-phenyl-4-(4-quinolinyl)-1H-pyrazole-1-carbothioamide], in the experiment with ALK4, the IC50 is 12 nM. At ALK1, the “inhibition of ALK1” value is recorded as “weakly inhibits”. Besides, the “inhibition of ALK2” value on ALK2 is reported as “weakly inhibits”. The “inhibition of ALK3” value on ALK3 was “weakly inhibits”. The “inhibition of ALK6” value on ALK6 is given as “weakly inhibits”. Also, the “inhibition of TGF-β-induced EMT” value in the experiment with TGF-β-induced EMT is reported as “inhibit”.

Turning to `CC(C)[C@H]1C(=O)N[C@H](CO)Cc2c[nH]c3cccc(c23)N1C` [Indolactam V, (2S,5S)-1,2,4,5,6,8-Hexahydro-5-(hydroxymethyl)-1-methyl-2-(1-methylethyl)-3H-pyrrolo[4,3,2-gh]-1,4-benzodiazonin-3-one], in the experiment with human urine cells (HUC), the “cell morphology following secondary induction” value was “some cells appeared to have an islet cell morphology”.

(Values after patent US10752884B2, “Method of inducing beta cells from urine-derived cells using small molecules” (UNIVERSITY OF SOUTH AUSTRALIA, priority 2014, dated 2020).)
